Among the data in patent US8338597B2, “Pyridones useful as inhibitors of kinases” (Vertex Pharmaceuticals Incorporated, priority 2004, dated 2012) are Ki values, retold here.

“And” between values parts separate entries of the source, which are not always exact repeats. Identical values can stand only once. Bounds are passed on as bounds.

Common to all, as to format: biochemical
One test concerns the target T1, Rlk (Homo sapiens, UniProt P42681).
T1 sequence (P42681 1-527): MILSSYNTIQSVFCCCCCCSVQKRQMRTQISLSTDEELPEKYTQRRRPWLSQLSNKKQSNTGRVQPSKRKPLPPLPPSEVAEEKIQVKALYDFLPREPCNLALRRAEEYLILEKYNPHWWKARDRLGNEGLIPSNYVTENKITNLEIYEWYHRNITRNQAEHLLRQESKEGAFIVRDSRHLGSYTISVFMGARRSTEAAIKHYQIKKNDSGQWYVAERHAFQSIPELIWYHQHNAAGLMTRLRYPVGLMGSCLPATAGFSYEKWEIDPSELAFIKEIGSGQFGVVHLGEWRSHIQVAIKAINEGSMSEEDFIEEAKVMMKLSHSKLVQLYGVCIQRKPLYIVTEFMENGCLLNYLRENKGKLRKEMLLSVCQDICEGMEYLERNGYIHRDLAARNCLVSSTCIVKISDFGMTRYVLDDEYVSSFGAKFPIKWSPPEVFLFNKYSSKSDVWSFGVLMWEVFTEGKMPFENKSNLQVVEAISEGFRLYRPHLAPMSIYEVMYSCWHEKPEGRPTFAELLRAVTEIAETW
Put plainly: RLK inhibition assay, standard coupled enzyme assay. The conditions noted are these: 100 μM ATP, 40 nM Rlk, 30° C. The method, then: Compounds were screened for their ability to inhibit Rlk using a standard coupled enzyme assay (Fox et al., Protein Sci., (1998) 7, 2249). Assays were carried out in a mixture of 20 mM MOPS (pH 7.0), 10 mM MgCl2, 0.1% BSA and 1 mM DTT. Final substrate concentrations in the assay were 100 μM ATP (Sigma Chemicals) and 10 μM peptide (Poly Glu:Tyr 4:1). Assays were carried out at 30° C. and in the presence of 40 nM Rlk. Final concentrations of the components of the coupled enzyme system were 2.5 mM phosphoenolpyruvate, 300 μM NADH, 30 μg/ml pyruvate kinase and 10 μg/ml lactate dehydrogenase.
An assay stock buffer solution was prepared containing all of the reagents listed above, with the exception of ATP and the test compound of interest. 60 μl of the stock solution was placed in a 96 well plate followed by addition of […] of DMSO stock containing serial dilutions of the test compound (typically starting from a final concentration of 7.5 μM). The plate was preincubated for 10 minutes at 30° C. and the reaction initiated by addition of 5 μl of ATP. Initial reaction rates were determined with a Molecular Devices SpectraMax Plus plate reader over a 10 minute time course. IC50 and Ki data were calculated from non-linear regression analysis using the Prism software package (GraphPad Prism version 3.0cx for Macintosh, GraphPad Software, San Diego Calif., USA).

The target of test [1] is T2, Itk (Homo sapiens, UniProt Q08881).
T2 sequence (Q08881 1-620): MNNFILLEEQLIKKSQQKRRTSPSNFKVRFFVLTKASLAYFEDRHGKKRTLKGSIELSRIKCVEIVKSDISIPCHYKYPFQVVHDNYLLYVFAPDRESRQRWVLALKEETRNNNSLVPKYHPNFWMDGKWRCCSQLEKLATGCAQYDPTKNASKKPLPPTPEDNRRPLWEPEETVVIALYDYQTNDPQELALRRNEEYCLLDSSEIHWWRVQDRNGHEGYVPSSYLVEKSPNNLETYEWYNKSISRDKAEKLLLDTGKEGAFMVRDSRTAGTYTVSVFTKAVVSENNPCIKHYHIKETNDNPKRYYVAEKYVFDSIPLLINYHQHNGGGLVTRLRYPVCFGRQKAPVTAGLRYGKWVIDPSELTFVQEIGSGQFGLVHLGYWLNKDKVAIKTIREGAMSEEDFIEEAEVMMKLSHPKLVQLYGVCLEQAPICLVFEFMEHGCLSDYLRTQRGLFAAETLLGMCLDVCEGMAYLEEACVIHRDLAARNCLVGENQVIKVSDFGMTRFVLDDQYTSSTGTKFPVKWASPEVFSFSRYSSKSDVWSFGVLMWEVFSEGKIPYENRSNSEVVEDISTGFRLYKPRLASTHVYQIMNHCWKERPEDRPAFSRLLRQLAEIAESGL
The test can be described thus: ITK inhibition assay (UV), standard coupled enzyme assay. The conditions noted are these: 100 μM ATP, 100 nM Itk, 25° C. On the procedure: Assays were carried out in a mixture of 20 mM MOPS (pH 7.0), 10 mM MgCl2, 0.1% BSA, 1 mM DTT, 2.5 mM phosphoenolpyruvate, 300 μM NADH, 30 μg/ml pyruvate kinase and 10 μg/ml lactate dehydrogenase. […]
An assay stock buffer solution was prepared containing all of the reagents listed above, with the exception of ATP and the test compound of interest. […] The plate was preincubated for 10 minutes at 25° C. and the reaction initiated by addition of 5 μl of ATP. Initial reaction rates were determined with a Molecular Devices SpectraMax Plus plate reader over a 10 minute time course. IC50 and Ki data were calculated from non-linear regression analysis using the Prism software package (GraphPad Prism version 3.0cx for Macintosh, GraphPad Software, San Diego Calif., USA).

In test [2] the target is T2, Itk. The test can be described thus: ITK inhibition assay, radioactive-phosphate incorporation. The conditions noted are these: [γ-33P]ATP, SAM68 peptide, 25° C.
Another test concerns the target Btk (Homo sapiens, UniProt Q06187). Put plainly: BTK inhibition assay, radioactive-phosphate incorporation. To be noted: 50 μM [γ-33P]ATP, 25 nM Btk, 25° C. On the procedure:
Compounds were screened for their ability to inhibit Btk using a radioactive-phosphate incorporation assay at Vertex Pharmaceuticals. Assays were carried out in a mixture of 20 mM MOPS (pH 7.0), 10 mM MgCl2, 0.1% BSA and 1 mM DTT. Final substrate concentrations in the assay were 50 μM [γ-33P]ATP (200mCi 33P ATP/mmol ATP, Amersham Pharmacia Biotech, Amersham, UK/Sigma Chemicals) and 2 μM peptide (SAM68 D332-443). Assays were carried out at 25° C. and in the presence of 25 nM Btk. An assay stock buffer solution was prepared containing all of the reagents listed above, with the exception of the peptide and the test compound of interest. 75 μL of the stock solution was placed in a 96 well plate followed by addition of 2 μL of DMSO stock containing serial dilutions of the test compound (typically starting from a final concentration of 15 μM) in duplicate (final DMSO concentration 2%). The plate was preincubated for 15 minutes at 25° C. and the reaction initiated by addition of 25 μL peptide (final concentration 2 μM). Background counts were determined by the addition of […] 0.2M phosphoric acid+0.01% TWEEN to control wells containing assay stock buffer and DMSO prior to initiation with peptide.
The reaction was stopped after 10 minutes by the addition of […] 0.2M phosphoric acid+0.01% TWEEN. A multiscreen phosphocellulose filter 96-well plate (Millipore, Cat no. MAPHN0B50) was pretreated with 100 μL 0.2M phosphoric acid+0.01% TWEEN 20 prior to the addition of […] of the stopped assay mixture. The plate was washed with 4×200 μL 0.2M phosphoric acid+0.01% TWEEN 20. After drying, 30 μL Optiphase ‘SuperMix’ liquid scintillation cocktail (Perkin Elmer) was added to the well prior to scintillation counting (1450 Microbeta Liquid Scintillation Counter, Wallac).
After removing mean background values for all of the data points, Ki(app) data were calculated from non-linear regression analysis using the Prism software package (GraphPad Prism version 3.0cx for Macintosh, GraphPad Software, San Diego Calif., USA).

Chain of Btk (Q06187 whole entry, species assumed): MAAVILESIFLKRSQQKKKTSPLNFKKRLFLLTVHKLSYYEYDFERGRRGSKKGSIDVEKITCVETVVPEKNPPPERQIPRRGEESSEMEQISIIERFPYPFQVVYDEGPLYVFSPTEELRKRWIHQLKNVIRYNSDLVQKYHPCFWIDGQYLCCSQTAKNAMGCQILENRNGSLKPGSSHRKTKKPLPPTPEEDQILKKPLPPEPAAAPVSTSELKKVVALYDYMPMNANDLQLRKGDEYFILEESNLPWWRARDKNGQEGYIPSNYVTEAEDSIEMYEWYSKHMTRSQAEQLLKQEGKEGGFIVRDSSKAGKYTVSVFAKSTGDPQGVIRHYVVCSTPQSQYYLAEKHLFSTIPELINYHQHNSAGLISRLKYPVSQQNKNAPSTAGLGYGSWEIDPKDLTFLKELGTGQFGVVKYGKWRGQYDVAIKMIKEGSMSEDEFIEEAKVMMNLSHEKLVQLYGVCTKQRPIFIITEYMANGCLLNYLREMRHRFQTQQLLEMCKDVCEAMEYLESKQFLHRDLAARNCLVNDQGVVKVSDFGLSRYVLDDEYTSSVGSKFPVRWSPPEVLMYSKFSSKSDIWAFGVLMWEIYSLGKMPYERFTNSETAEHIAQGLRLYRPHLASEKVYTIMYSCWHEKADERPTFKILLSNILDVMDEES

For the compound `CC(C)(C)c1ccc(C(=O)Nc2cc(-c3ccncc3)c[nH]c2=O)cc1` [Compound I-11, 4-tert-Butyl-N-(6-oxo-1,6-dihydro-[3,4]bipyridinyl-5-yl)-benzamide], the inhibitory constant (Ki) at Rlk is more than 1000 nM; on Itk [1], 100 to 1000 nM; at Itk [2], 100 to 1000 nM.
As to `CNc1cccc(-c2c[nH]c(=O)c(NC(=O)c3ccc(C(C)(C)C)cc3)c2)n1` [II-7], the values for the Ki on Rlk, at Itk [1] and at Itk [2] were more than 1000 nM, 100 to 1000 nM and 100 to 1000 nM, respectively.
Regarding `CNc1cc(-c2c[nH]c(=O)c(NC(=O)c3ccc(C(C)(C)C)cc3)c2)nc(SC)n1` [II-41], the figures for the inhibitory constant (Ki) at Rlk, at Itk [1] and on Itk [2] were more than 1000 nM, 100 to 1000 nM and 100 to 1000 nM, respectively.
For the compound `CNc1ccc(C)c(-c2c[nH]c(=O)c(NC(=O)c3ccc(C(C)(C)C)cc3)c2)c1` [II-43], the Ki on Btk is more than 500 nM; at Itk [2], 100 to 1000 nM.
Taken in the same sequence, the figures for `CNCCNc1cccc(-c2c[nH]c(=O)c(NC(=O)c3ccc(N4CCCCC4)cc3)c2)n1` [II-51] were less than 500 nM and less than 100 nM.
The matching figures for `CN(C)CCNc1nccc(-c2c[nH]c(=O)c(NC(=O)c3ccc(N4CCCCC4)cc3)c2)n1` [II-58]: less than 500 nM and less than 100 nM.
For the compound `CN(C)CCN(C)c1nccc(-c2c[nH]c(=O)c(NC(=O)c3ccc(N4CCCCC4)cc3)c2)n1` [II-61], the inhibitory constant (Ki) was > 500 nM and < 500 nM at Btk; 100 to 1000 nM at Itk [2].
On to `CNCCNc1nccc(-c2c[nH]c(=O)c(NC(=O)c3ccc(N4CCCCC4)cc3)c2)n1` [II-63], for which the inhibition constant Ki at Btk was less than 500 nM; on Itk [2], less than 100 nM.
`CNc1nccc(-c2c[nH]c(=O)c(NC(=O)c3ccc(N4CCNCC4)cc3)c2)n1` [II-77]: the Ki on Btk was less than 500 nM; at Rlk, less than 1000 nM; at Itk [2], less than 100 nM.
Taken in the same sequence, the figures for `CNc1nccc(-c2c[nH]c(=O)c(NC(=O)c3ccc(N4CCN(C(C)C)CC4)cc3)c2)n1` [II-78] were less than 500 nM, less than 1000 nM and less than 100 nM.
Turning to `CNc1nccc(-c2c[nH]c(=O)c(NC(=O)c3ccc(N4CCC[C@H]4CN4CCCC4)cc3)c2)n1` [II-80], the values for the Ki at Btk, at Rlk and on Itk [2] were less than 500 nM, less than 1000 nM and less than 100 nM, respectively.
Taken in the same sequence, the figures for `CC(C)(N)CNc1cccc(-c2c[nH]c(=O)c(NC(=O)c3ccc(N4CCCCC4)cc3)c2)n1` [II-112] were less than 500 nM, less than 1000 nM and less than 100 nM.
For the compound `CNc1cncc(-c2c[nH]c(=O)c(NC(=O)c3ccc(N4CCCCC4)cc3)c2)n1` [II-114], the inhibitory constant (Ki) on Btk is more than 500 nM; at Rlk, more than 1000 nM.
`CC(O)[C@@H](CO)Nc1cccc(-c2c[nH]c(=O)c(NC(=O)c3ccc(N4CCCCC4)cc3)c2)n1` (stereo partly drawn) [II-149]: the Ki is more than 500 nM at Btk, more than 1000 nM at Rlk and 100 to 1000 nM at Itk [2].
